According to patent US5405958A, “Photochromic spiro(indoline)naphthoxazine compounds” (Transitions Optical, Inc., priority 1992, dated 1995):

Key:
Assay type in all cases: physicochemical
[1] = Colour change of diethylene glycol dimethyl ether solution on ultraviolet irradiation
[2] = UV spectrophotometer lambda max in diethylene glycol dimethyl ether solution; conditions: for lambda max compared with compound samples A, B and D (in words): Table 1 values vs. samples A, B and D of Table 2; for LAMBDA MAX: in diethylene glycol dimethyl ether, approximately 0.5 milligrams per milliliter
Experimental: The principal products of Examples 1, 2 and 3 were dissolved in diethylene glycol dimethyl ether. The concentrations of the resulting solutions were approximately 0.5 milligrams per milliliter. Each solution was tested in a UV spectrophotometer to determine its lambda max. The lambda max reported in Table 1 is the wavelength in the ultraviolet range closest to the visible spectrum or in the threshold range, i.e., 390 to 410 nanometers, of the visible spectrum, at which the maximum absorption and activation of the photochromic compound occurs in diethylene glycol dimethyl ether.

[3] = Bleach rate of imbibed polymer test squares; conditions: for BLEACH RATE T 1/2: 25.7±0.5° C., after removal of activating light
Experimental: (§1) These compounds were imbibed by thermal transfer into test squares of a polymeric matrix prepared from a diethylene glycol bis(allyl carbonate) composition by the following procedure: Each photochromic compound was dissolved in toluene to form a 4 weight percent solution of the compound. A piece of No. 4 Whatman filter paper was saturated with the toluene solution of the photochromic compound and allowed to air dry. The dried filter paper was placed on one side of the polymer test square, which measured 1/8 inch (0.3 centimeter)×2 inch (5.1 centimeters)×2 inch (5.1 centimeters). A piece of untreated filter paper was placed on the other side of the polymer test square and the resulting sandwich placed between two plates of flat aluminum metal plates. […] The imbibed test squares were washed with acetone after removal from the oven.
(§2) The imbibed polymer test squares were tested for photochromic response rates on an optical bench. The samples were illuminated by a 150 watt Xenon lamp fitted with a copper sulfate bath and a neutral density filter at an intensity of about one sun. A second beam of light provided by a filtered tungsten lamp arranged to pass through the sample area exposed by the UV source was used to monitor changes in transmission of the sample over different wavelength ranges in the visible region of the spectrum. The intensity of the monitoring beam after passing through the sample was measured by means of an IL-1500 radiometer equipped with a silicon detector head and matching filters.

[4] = Lambda max in imbibed polymer matrix test squares; conditions: for LAMBDA MAX: in polymer matrix test squares of diethylene glycol bis(allyl carbonate)
Experimental: as §1
(§3) The Δ OD/min., which represents the sensitivity of the photochromic compound's response to UV light, was measured using photopic filters on the silicon detector. The response of the filtered detector approximated the luminosity curve. The Δ OD was measured over the first five (5) seconds of UV exposure, then expressed on a per minute basis. The saturation optical density (OD) was taken under identical conditions as the Δ OD/min., except UV exposure was continued for 20 minutes. The lambda max reported in Table 2 is the wavelength in the ultraviolet range closest to the visible spectrum or in the threshold range, i.e., 390 to 410 nanometers, of the visible spectrum at which the maximum absorption and activation of the photochromic compound occurs in the polymer matrix test squares.

[5] = Photochromic response (sensitivity, saturation optical density) of imbibed polymer test squares on optical bench; conditions: for Δ OD @ SATURATION: UV exposure continued for 20 minutes; for Δ OD/min. SENSITIVITY: first five (5) seconds of UV exposure, expressed per minute, photopic filters, about one sun
Experimental: as §1, §2, §3

Molecule	colour of solution after the ultraviolet light was removed [1]	colour of solution before irradiation [1]	colour of solution when irradiated with ultraviolet light [1]	lambda max compared with compound samples A, B and D (in words) [2]	LAMBDA MAX [2]	BLEACH RATE T 1/2 [3] [s]	bleach rate (in words) ([3]; polymer test squares)	LAMBDA MAX [4]	absorption maxima in the UV spectrum compared with compounds A, B and D (in words) ([4]; polymer test squares)	Δ OD @ SATURATION [5]	Δ OD/min. SENSITIVITY [5]	optical density at saturation compared with the other compounds (in words) ([5]; polymer test squares)	sensitivity compared with the other compounds (in words) ([5]; polymer test squares)
1,3,3,4,5(or 1,3,3,5,6,)-pentamethyl-9'-methoxy-carbonyl-8'-acetoxy-spiro[indoline-2,3'-[3H]naphth[2,1-b][1,4]oxazine] [Example 3]	returned to its original colorless condition	colorless	changed to blue	relatively high lambda max values	374	–	–	–	–	–	–	–	–
1,3,3,4,5(or 1,3,3,5,6,)-pentamethyl-9'-methoxycarbonyl-8'-hydroxy-spiro[indoline-2,3'-[3H]naphth[2,1-b][1,41oxazine] [Example 1]	returned to its original slightly colored condition	slight yellow cast	changed to green	relatively high lambda max values	403	–	–	–	–	–	–	–	–
1,3,3,4,5(or 1,3,3,5,6,)-pentamethyl-9'-methoxycarbonyl-8'-methoxy-spiro[indoline-2,3'-[3H]naphth[2,1-b][1,41oxazine] [Example 2]	returned to its original colorless condition	colorless	changed to blue	relatively high lambda max values	383	–	–	–	–	–	–	–	–
1-propyl-3,3,4,5(or 3,3,5,6)-tetramethyl-9'-methoxycarbonyl-8'-acetoxy-spiro[indoline-2,3'-[3H]naphth[2,1-b][1,4]oxazine] [Compound C]	–	–	–	–	–	136	acceptable bleach rate	374	unexpectedly higher than compounds A, B and D	0.42 Δ OD	0.46 Δ OD/min.	higher optical density at saturation	improved sensitivity
1propyl-3,3,4,5(or 3,3,5,6)tetramethyl-spiro[indoline2,3[3H]naphth[2,1b][1,4]oxazine]	–	–	–	–	–	47	–	346	–	0.11 Δ OD	0.21 Δ OD/min.	–	–
CCCN1c2cc(C)c(C)cc2C(C)(C)C12C=Nc1c(ccc3ccc(OC)cc13)O2 (centres unmarked) [A, 1propyl-3,3,5,6-tetramethyl-9methoxy-spiro[indoline2,3[3H]naphth[2,1b][1,]oxazine]]	–	–	–	–	–	70	–	336	–	0.11 Δ OD	0.15 Δ OD/min.	–	–
CCCN1c2cc(C)c(C)cc2C(C)(C)C12C=Nc1c(ccc3ncccc13)O2 (centres unmarked) [B, 1propyl-3,3,5,6-tetramethyl-spiro[indoline2,3[3H]pyrido[3,2f][1,4]benzoxaine]]	–	–	–	–	–	69	–	350	–	0.36 Δ OD	0.44 Δ OD/min.	–	–
